Assays:
[1] = tested on: elastase; details: inhibition of elastase activity as described in the package insert; cited from earlier work
[2] = target: T1, soluble, granule-associated human leukocyte elastase (HLE-G) (Homo sapiens, UniProt P08246); test: Inhibition of soluble human leukocyte elastase (HLE-G), SA3NA substrate, 405 nm; type: biochemical; details: for IC50: IC50 of compound versus HLE-G (75 μM); for Molar Excess**: Molar excess of compound to HLE-G at IC50
T1 sequence (P08246 30-267): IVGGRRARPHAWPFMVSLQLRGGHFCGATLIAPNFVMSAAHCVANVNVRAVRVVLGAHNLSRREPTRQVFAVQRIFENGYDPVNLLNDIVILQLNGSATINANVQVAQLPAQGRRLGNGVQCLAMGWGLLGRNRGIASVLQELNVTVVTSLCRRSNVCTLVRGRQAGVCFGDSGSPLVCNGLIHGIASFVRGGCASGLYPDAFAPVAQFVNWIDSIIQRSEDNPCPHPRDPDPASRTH
Procedure: The procedures for measuring the capacity of substances to inhibit soluble forms of elastase or HLE-G are well known to those of ordinary skill in the art (U.S. Pat. No. 6,887,678; Bristow et al., 1998). Briefly, soluble human leukocyte elastase (HLE-G) is incubated for 2 minutes with a test substance, and to this mixture is added the elastase substrate succinic-L-Ala-L-Ala-L-Ala-p-nitroanilide (SA3NA, Sigma-Aldrich). Results are detected by measuring the color change at 405 nm.
Assay 1: Inhibition of HLE (microplate assay, 10 tests per plate) as described in Example 2 above and previously published (Bristow et al., 1998).

[3] = target: T2, cell surface human leukocyte elastase (HLE-CS) (Homo sapiens, UniProt P08246); test: Adherence of U937 cells to compound-coated glass (binding to HLE-CS); type: cell-based; details: 2,000 U937 cells added per compound-treated well; for Adherent Cells: at optimal adherence concentration
T2 construct: endogenous in cells
T2 sequence (P08246 30-267): T1 sequence (P08246 30-267)
From the text: Adherence is the first step in cell migration and requires […] calcium, magnesium, signaling, or energy. […] […] After washing and fixing the cells, the number of adherent cells were counted microscopically.

[4] = tested on: LDL; test: Diet-induced obesity (DIO) mouse model, serum LDL levels; type: in vivo; details: week 6, normalized to vehicle
Procedure: The well-known Jackson Laboratory (Bar Harbor, Me.) C57BL/6 Diet-Induced Obesity (DIO) mouse model represents human metabolic syndrome and elevated LDL levels. Mice are fed a high fat diet (60% fat) or normal diet (10% fat) for various periods of time and lipoprotein levels were measured. […] In accordance with a protocol used in a recently conducted human clinical trial (NCT01731691), mouse peripheral blood was collected into blood collection tubes, and serum was analyzed for lipoprotein levels using Beckman Coulter AU680 Chemistry System. In addition, cells were analyzed by flow cytometry to quantitate lymphocyte subsets including CD3, CD4, and CD8. As compared to baseline levels (before treatment), lipoprotein levels (including, but not limited to total cholesterol, HDL, LDL, apoA, apoB, apoC, apoE) and blood cells expressing the above mentioned cellular markers were quantitated to determine changes due to treatment. Diet-induced obesity mice (DIO, Jackson Laboratory) were fed a 60% fat diet for 17 weeks. […] Because mice were maintained on the DIO diet throughout the study, body weight and LDL levels increased in the vehicle control (Group 1). To compare the effectiveness of compounds, mean values within each treatment group were normalized by forming a ratio to mean values of vehicle, and the ratio was expressed as normalized % change using to the formula: 100−(Treatment mean/Vehicle mean*100).

[5] = tested on: HIV permissive (plus) clone 10; test: Adherence assay on coverslips, U937 plus clone 10; type: cell-based, human
Procedure: To coverslips prepared with chemoattractants as described above, 10^6 cells in 90 μl HBSS were mixed to uniformity, and incubated for 30 min in humidified 5% CO2 at 37° C. without dehydration. To detect interacting effects of stimulants, cells were delivered in an 80 μl volume to coverslips previously prepared with 10 μl of one stimulant, mixed to uniformity, and incubated for 15 min at 37° C. Subsequently, an additional stimulant was delivered in a 10 μl volume to each coverslip, mixed with pre-incubated cells to uniformity, and incubated for 30-60 min at 37° C. […] Slides were examined by epi-illumination UV microscopy on a Zeiss Axioskop Means and standard deviations were determined by counting adherent cells in at least three fields/coverslip.
Means and standard deviations represent the difference between stimulated and unstimulated adherence. […] Adherence was optimized for each chemoattractant and adherence induced by each chemoattractant was enumerated in more than three separate experiments.

[6] = tested on: E. coli DH5-Alpha; test: Kirby-Bauer Disk Test, zones of inhibition; type: cell-based; details: for zone of inhibition at 5000 µM: 5 mM
Procedure: […] At this concentration of cells, bacteria were spread on Mueller-Hinton agar plates. […] After incubation for 16 hours at 37° C., plates were examined for zones of inhibition.

[7] = tested on: U937 Clone 10 cells; test: Receptor polarization, cell migration and SHIV endocytosis in preconditioned cells; type: cell-based, human
Procedure: The procedures for inducing receptor polarization have been described (Bristow et al., 2003).
To examine receptor polarization, microscope slides are prepared by adding serial dilutions of a β-lactams. Cells are added to the microscope slides and incubated for 30 minutes in humidified 5% CO2 at 37° C. Unattached cells are removed by washing, and attached cells are fixed by application of 4% paraformaldehyde after which attached cells are counted by light microscopy and photographed using confocal microscopy
Receptor Polarization: U937 Clone 10 cells were cultured overnight in AIM-V serum-free medium. Cells were pelleted, re-suspended in AIM-V at 2×10^6/ml, and 250 μl (5×10^5 cells) was added to Eppendorf tubes pre-coated to prevent attachment.
Binding and Endocytosis: AT 2 chemically inactivated SHIV preparations, consisting of non-infectious virus with conformationally and functionally intact envelope glycoproteins, were provided by the AIDS Vaccine Program (SAIC Frederick, Frederick, Md.). Cells were pulsed with virus (30 ng p27 or p24 per 10^6 cells) for 2 hr. at 2° C. which allows binding, but prevents endocytosis. Alternatively, cells were pulsed with virus for 2 hr. at 37° C. which allows binding and endocytosis. Following pulsing for 2 hr., cells were mounted on Alcian blue slides for microscopy. The presence of inactivated virus in test cells was detected using dodecameric human CD4+-IgG1 provided by the Laboratory of Immunoregulation, NIAID, NIH. This reagent specifically recognizes conformationally intact HIV 1/SIV envelope gp120. CD4-IgG1 was detected using HRP-conjugated Rb anti-human IgG (Sigma). CD4+ IgG-labeled cells were coupled to Oregon 488 fluorochrome using the tyramide signal amplification system (Life Science Products, Boston, Mass., USA). […] Cells were analyzed using 2 μm scanning from 3B.

[8] = tested on: T lymphocytes; test: Effect on T cell numbers in C57BL6 mice, flow cytometry; type: in vivo, mouse; details: 5 mg/kg oral gavage, 2 weeks of treatment, change from baseline
Procedure: Compounds were delivered by oral gavage 5 days per week. Blood was collected weekly for detection of CD3e, CD4, and CD8a T cells by flow cytometry using the mouse T lymphocyte subset antibody cocktail with isotype control (BD Biosciences). The study was performed at the Division of Laboratory Animal Research, Stony Brook University, Stony Brook, N.Y. Staining and statistical analysis was performed by Alpha-1 Biologics, and the samples were acquired by the Flow Cytometry Laboratory, Stony Brook Hospital, using a BD LSRFortessa instrument. […] Data were normally distributed and compared using Student's T-test. Mean % Change in CD3+ T cells for vehicle was −11% and for CD4+CD8+ progenitors was −13%. […] Average percent change from baseline is represented in FIGS. 6A and 6B where % change=100×[(Treatment Mean-Baseline)/Baseline].

[9] = Escherichia coli, DH5ALPHA, 10 μl per disk, 16 hours at 37° C., read-out: diameter of zone of inhibition

Molecule	IC50 [2]	Molar Excess** [2]	Optimal Adherence Concentration (nM)*** [3]	Adherent Cells [3]	other results
PROLASTIN-C®: human α1PI, cryoprecipitate preparation isolated from human plasma (Grifols)	–	–	–	–	specific activity [1]: 70%
CC1(C)S[C@@H]2[C@H](NC(=O)COc3ccccc3)C(=O)N2[C@H]1C(=O)O [Pen V, Penicillin V]	262 µM	3.5	10 nM	30 ± 4	–
C[C@H]1[C@H](NC(=O)/C(=N\OC(C)(C)C(=O)O)c2csc(N)n2)C(=O)N1S(=O)(=O)O [Aztreonam]	234 µM	3.1	1 nM	33 ± 4	–
CC1(C)S[C@@H]2[C@H](NC(=O)[C@H](N)c3ccc(O)cc3)C(=O)N2[C@H]1C(=O)O [Amoxicillin]	–	–	1 nM	54 ± 20	–
Phe-Leu-Gly-Phe-Leu (FLGFL; printed: Phe-Leu-Gly-Phe-Leu) [synthetic peptide representative of the HIV fusion domain]	–	–	–	–	stimulation of adherence [5]: stimulated to adhere
MAAPVCK [methoxysuccinyl-L-Ala-L-Ala-L-Pro-L-Val-chloromethylketone]	–	–	–	–	stimulation of adherence [5]: stimulated to adhere
CC1(C)S[C@@H]2[C@H](NC(=O)[C@H](N)c3ccccc3)C(=O)N2[C@H]1C(=O)O [D-Ampicillin, Ampicillin]	–	–	–	–	activity in the Kirby-Bauer Disk Test ([6]; 0.5 mM): exhibits activity; zone of inhibition at 500 µM ([6]; Escherichia coli, DH5ALPHA, 0.5 mM, 10 μl per disk, 16 hours at 37° C., read-out: diameter of zone of inhibition): 15 mm; zone of inhibition at 5000 µM [6, 9]: 30 mm
N-tosyl-L-phenylalanine chloromethylketone [TPCK]	–	–	–	–	stimulation of adherence [5]: stimulated to adhere
CC1(C)SC2C(NC(=O)C(N)c3ccccc3)C(=O)N2C1C(=O)O [L-Ampicillin, (2S,5R,6R)-6-((S)-2-amino-2 phenylacetamcido)-3,3-dimethyl-7-oxo-4-thia-1-azabicyclo[3.2.0] heptane-2-acid]	–	–	–	–	activity in the Kirby-Bauer Disk Test ([6]; 0.5 mM): ineffective as an antibiotic; zone of inhibition at 5000 µM [6, 9]: 14 mm; cell motility (morphology by confocal microscopy) [7]: exhibited the morphology of cells undergoing cell motility; receptor polarization [7]: induces receptor polarization; cell migration and endocytosis (SHIV) ([7]; FIGS. 3A and 3B): stimulation of cell migration and endocytosis; normalized mean % change in LDL ([4]; 5 mg/kg oral gavage 5 days per week): −41.0±20.5%; normalized mean % change in LDL ([4]; 50 mg/kg oral gavage 5 days per week): 3.7%; Mean % Change in CD3+ T cells [8]: +16%; Mean % Change in CD4+CD8+ progenitors [8]: +38%

Continued, in another order:

IC50 [2]	Molar Excess** [2]	Optimal Adherence Concentration (nM)*** [3]	Adherent Cells [3]	Molecule	other results
178 µM	2.4	100 nM	52 ± 6	C[C@@H](O)[C@H]1C(=O)N2C(C(=O)O)=C(S[C@@H]3CN[C@H](CNS(N)(=O)=O)C3)[C@H](C)[C@H]12 [Doripenem]	–
277 µM	3.7	100 nM	40 ± 3	O=C1[C@H](CC[C@H](O)c2ccc(F)cc2)[C@@H](c2ccc(O)cc2)N1c1ccc(F)cc1 [Ezetimibe]	normalized mean % change in LDL ([4]; 10 mg/kg oral gavage 5 days per week): −43.8±29.6%
167 µM	2.2	1 nM	34 ± 8	CO/N=C(\C(=O)N[C@@H]1C(=O)N2C(C(=O)O)=C(COC(N)=O)CS[C@H]12)c1ccco1 [Cefuroxine, Cefuroxime]	–
232 µM	3.1	1 nM	26 ± 9	Cc1onc(-c2c(Cl)cccc2Cl)c1C(=O)N[C@@H]1C(=O)N2[C@@H]1SC(C)(C)[C@@H]2C(=O)O [Dicloxacillin]	–
203 µM	2.7	10 nM	23 ± 4	C[C@@H](O)[C@H]1C(=O)N2C(C(=O)O)=C([C@H]3CCCO3)S[C@H]12 [Faropenem]	–
–	–	10 nM	27 ± 10	CC1=C(C(=O)O)N2C(=O)[C@@H](NC(=O)[C@H](N)c3ccccc3)[C@H]2SC1 [Cephalexin]	–

— US12097190B2, “Therapeutic use of levorotatory β-lactams in hematopoiesis, immuno-oncology therapy, and regulation of lipoprotein and apolipoprotein levels” (Alpha-1 Biologics, LLC, priority 2017, dated 2024)
